Strand notation (5' to 3'): a small letter for the sugar, then the base; units joined by * are phosphorothioate-linked, units joined directly phosphodiester-linked; [ ] holds rarer units or linkages, { } end groups; capitals alone tell only the bases. e = 2'-O-(2-methoxyethyl) (MOE); k = constrained ethyl (cEt); [5mC] = 5-methylcytosine; d = 2'-deoxy (DNA); m = 2'-O-methyl
The substances below were run on Yap1 mRNA (assay: Antisense inhibition of human Yap1 in SNU-449 cells by modified oligonucleotides, single dose (Example 5, RTS36584)). Conditions: Table 40 (separate experiment); SNU-449 cells, 10,000 cells per well, free uptake, 2,000 nM oligonucleotide, approx. 48 hours; RTS36584; normalized to RIBOGREEN; Yap1 mRNA relative to untreated control.
Format: cell-based
In short: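 SNU-449 cells were given 2,000 nM oligonucleotide by free uptake for about 48 h. Yap1 mRNA was then measured by RT-qPCR with primer probe set RTS36584, normalized to total RNA by RIBOGREEN and expressed as percent of untreated control.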
In the case of “1198741 (kT*eT*kA*d[5mC]*dA*dT*dT*dA*dG*dG*dA*dA*e[5mC]*eA*kA*kG; antisense) [Compound 1198741]”, the “YAP1 (% UTC)” value is reported as 60 % UTC. “1198753 (k[5mC]*eT*kT*dT*dG*dG*dA*dA*dG*dA*dT*d[5mC]*eT*eG*kA*kA; antisense) [Compound 1198753]” was tested, and the “YAP1 (% UTC)” value was 58 % UTC. With “1198778 (kA*eT*kA*dT*dT*dG*d[5mC]*dA*dA*dT*d[5mC]*dT*eG*eT*k[5mC]*kT; antisense) [Compound 1198778]” the “YAP1 (% UTC)” value was 55 % UTC. In the case of “1198718 (kG*eA*kA*dA*dT*dT*dG*dT*d[5mC]*dT*d[5mC]*dA*eT*eG*k[5mC]*k[5mC]; antisense) [Compound 1198718]”, the “YAP1 (% UTC)” value is reported as 9 % UTC. For “1198758 (kA*eT*kA*dG*dT*dG*d[5mC]*dT*dT*dT*dG*dG*eA*eA*kG*kA; antisense) [Compound 1198758]”, the “YAP1 (% UTC)” value was 47 % UTC. With “1198781 (antisense kG*eT*kA*dA*dT*dA*dT*dT*dG*d[5mC]*dA*dA*eT*e[5mC]*kT*kG) [Compound 1198781]” the “YAP1 (% UTC)” value was 25 % UTC. In the case of “1198798 (antisense kT*eA*kA*dG*dT*dA*dA*dG*dG*dT*dT*dT*e[5mC]*e[5mC]*k[5mC]*kA) [Compound 1198798]”, the “YAP1 (% UTC)” value is reported as 38 % UTC.

Same assay, conditions: Table 41; SNU-449 cells, 10,000 cells per well, free uptake, 2,000 nM modified oligonucleotide, approximately 48 hours; RTS36584; normalized to RIBOGREEN; Yap1 mRNA relative to untreated control cells
For “1198651 (kT*kT*dA*d[5mC]*dA*dT*dT*dA*dG*dG*dA*dA*k[5mC]*eA*kA*eG; antisense) [Compound 1198651]”, the “YAP1 (% UTC)” value was 94 % UTC. For “1198636 (kA*kT*dA*dT*dG*dG*dA*dA*dA*dT*dT*dG*kT*e[5mC]*kT*e[5mC]; antisense) [Compound 1198636]”, the “YAP1 (% UTC)” value was 41 % UTC. For “1198672 (antisense kA*kT*dT*dT*dA*dG*dG*dA*dT*dG*d[5mC]*dA*kT*eG*kG*eT) [Compound 1198672]”, the “YAP1 (% UTC)” value was 41 % UTC. In the case of “1198775 (k[5mC]*eA*kA*d[5mC]*dT*d[5mC]*dT*dT*dA*dT*dA*dT*eG*eG*kT*kT; antisense) [Compound 1198775]”, the “YAP1 (% UTC)” value is reported as 113 % UTC.

Same assay, conditions: Table 42 (separate experiment); SNU-449 cells, 10,000 cells per well, free uptake, 2,000 nM modified oligonucleotide, approximately 48 hours; RTS36584; normalized to RIBOGREEN; Yap1 mRNA relative to untreated control cells
For “1198648 (kA*kG*dG*dT*dA*dT*dA*dA*d[5mC]*dT*dG*dG*kG*e[5mC]*kA*eA) [Compound 1198648]”, the “YAP1 (% UTC)” value was 43 % UTC. “1198227 (kA*kG*d[5mC]*dA*d[5mC]*dT*dT*dT*dT*dA*d[5mC]*eA*eT*eT*kA*kG; antisense) [Compound 1198227]” was tested, and the “YAP1 (% UTC)” value was 104 % UTC. With “1198221 (kT*kT*dA*d[5mC]*dA*dT*dT*dA*dG*dG*dA*eA*e[5mC]*eA*kA*kG) [Compound 1198221]” the “YAP1 (% UTC)” value was 95 % UTC.

Same assay, conditions: Table 43 experiment; SNU-449 cells, 10,000 cells per well, free uptake, 2,000 nM, approximately 48 hours; RTS36584; Yap1 mRNA normalized to RIBOGREEN, relative to untreated control cells
With “1198458 (kA*kA*dT*dT*dG*dT*d[5mC]*dT*d[5mC]*dA*dT*eG*k[5mC]*e[5mC]*kT*eT) [Compound 1198458]” the “YAP1 (% UTC)” value was 30 % UTC. For “1198256 (kG*kA*d[5mC]*dA*dA*d[5mC]*dT*d[5mC]*dT*dT*dA*eT*eA*eT*kG*kG; antisense) [Compound 1198256]”, the “YAP1 (% UTC)” value was 78 % UTC. With “1198250 (k[5mC]*kT*dT*dA*dT*dA*dT*dG*dG*dT*dT*eT*eT*eG*kT*kG; antisense) [Compound 1198250]” the “YAP1 (% UTC)” value was 50 % UTC. With “1198262 (kT*kG*dT*dA*dA*dT*dA*dT*dT*dG*d[5mC]*eA*eA*eT*k[5mC]*kT; antisense) [Compound 1198262]” the “YAP1 (% UTC)” value was 114 % UTC. With “1198266 (kT*kG*dT*dA*dT*dG*dT*d[5mC]*dA*dG*dA*eA*eG*eA*kG*kT; antisense) [Compound 1198266]” the “YAP1 (% UTC)” value was 25 % UTC. For “1198275 (kT*kA*dA*dG*dG*dT*dT*dT*d[5mC]*d[5mC]*d[5mC]*eA*eG*eA*kT*kT; antisense) [Compound 1198275]”, the “YAP1 (% UTC)” value was 52 % UTC.

Same assay, conditions: Table 44 experiment; SNU-449 cells, 10,000 cells per well, free uptake, 2,000 nM, approximately 48 hours; RTS36584; Yap1 mRNA normalized to RIBOGREEN, relative to untreated control cells
In the case of “1198904 (kT*kA*dT*dT*dA*dG*dA*dG*dT*dA*dT*kG*dT*kG*dG*k[5mC]; antisense) [Compound 1198904]”, the “YAP1 (% UTC)” value is reported as 12 % UTC. “1198539 (antisense kG*kA*d[5mC]*dT*dA*dA*dG*dT*dA*dA*dG*eG*kT*eT*kT*e[5mC]) [Compound 1198539]” was tested, and the “YAP1 (% UTC)” value was 54 % UTC. For “1198524 (kT*kG*dT*dA*dT*dG*dT*d[5mC]*dA*dG*dA*eA*kG*eA*kG*eT; antisense) [Compound 1198524]”, the “YAP1 (% UTC)” value was 3 % UTC. “1198477 (antisense kG*kA*dG*dG*dT*dA*dT*dA*dA*d[5mC]*dT*eG*kG*eG*k[5mC]*eA) [Compound 1198477]” was tested, and the “YAP1 (% UTC)” value was 47 % UTC.

Same assay, conditions: Table 45; Yap1 mRNA as percent of untreated control, SNU-449 cells, single dose
In the case of “1198963 (kT*kT*dA*dA*dA*dG*dT*dG*dT*dA*dT*kG*dT*k[5mC]*dA*kG; antisense) [Compound 1198963]”, the “YAP1 (% UTC)” value is reported as 27 % UTC. For “1198964 (kT*kT*dT*dA*dA*dA*dG*dT*dG*dT*dA*kT*dG*kT*d[5mC]*kA; antisense) [Compound 1198964]”, the “YAP1 (% UTC)” value was 59 % UTC. For “1198911 (kG*kA*dG*dG*dT*dA*dT*dA*dA*d[5mC]*dT*kG*dG*kG*d[5mC]*kA; antisense) [Compound 1198911]”, the “YAP1 (% UTC)” value was 26 % UTC. “1198909 (kG*kG*dT*dA*dT*dA*dA*d[5mC]*dT*dG*dG*kG*d[5mC]*kA*dA*kA; antisense) [Compound 1198909]” was tested, and the “YAP1 (% UTC)” value was 56 % UTC.

Same assay, conditions: Table 46; Yap1 mRNA as percent of untreated control, SNU-449 cells, single dose
“1198852 (kT*k[5mC]*dA*dG*dA*dT*dT*dT*dA*dG*dG*kA*eT*kG*e[5mC]*kA; antisense) [Compound 1198852]” was tested, and the “YAP1 (% UT)” value was 41 % UT. For “1198882 (kA*kG*dT*dA*dA*dG*dG*dT*dT*dT*d[5mC]*k[5mC]*e[5mC]*kA*eG*kA; antisense) [Compound 1198882]”, the “YAP1 (% UT)” value was 56 % UT.

Same assay, conditions: Table 48; Yap1 mRNA level relative to untreated control; modified oligonucleotides targeting SEQ ID NO.: 1 and 2
In the case of “1198308 (kT*kT*kT*dT*dA*d[5mC]*dA*dT*dT*dA*dG*dG*kA*eA*k[5mC]*eA; antisense) [Compound 1198308]”, the “YAP1 (% UT)” value is reported as 68 % UT. For “1197219 (antisense kA*kA*k[5mC]*dT*dT*dT*dA*dA*dA*dG*dT*dG*dT*kA*kT*kG) [Compound 1197219]”, the “YAP1 (% UT)” value was 71 % UT. With “1076439 (k[5mC]*kT*kT*dA*dT*dA*dT*dG*dG*dT*dT*dT*dT*kG*kT*kG) [Compound 1076439]” the “YAP1 (% UT)” value was 31 % UT.

Same assay, conditions: Table 49; Yap1 mRNA level relative to untreated control; modified oligonucleotides targeting SEQ ID NO.: 1 and 2
In the case of “1198575 (antisense kT*kT*kG*dG*dA*dA*dG*dA*dT*d[5mC]*dT*dG*kA*kA*kA*e[5mC]) [Compound 1198575]”, the “YAP1 (% UT)” value is reported as 94 % UT. With “1198306 (kA*kA*k[5mC]*dA*d[5mC]*dT*dG*dA*dG*dG*dT*dA*kT*eA*kA*e[5mC]; antisense) [Compound 1198306]” the “YAP1 (% UT)” value was 64 % UT.

Same assay, conditions: Table 51; Yap1 mRNA remaining as percent of untreated control (UT), SNU-449 cells, single dose
“1197276 (k[5mC]*kT*kA*dA*mG*dT*dA*dA*dG*dG*dT*dT*dT*k[5mC]*k[5mC]*k[5mC]; antisense) [Compound 1197276]” was tested, and the “YAP1 (% UT)” value was 44 % UT. “1197239 (antisense kT*kG*kA*dG*mG*dT*dA*dT*dA*dA*d[5mC]*dT*dG*kG*kG*k[5mC]) [Compound 1197239]” was tested, and the “YAP1 (% UT)” value was 47 % UT. With “1197258 (antisense kA*kT*kT*d[5mC]*mA*dG*dA*dT*dT*dT*dA*dG*dG*kA*kT*kG) [Compound 1197258]” the “YAP1 (% UT)” value was 57 % UT. “1197266 (kT*kG*kT*dA*mA*dT*dA*dT*dT*dG*d[5mC]*dA*dA*kT*k[5mC]*kT) [Compound 1197266]” was tested, and the “YAP1 (% UT)” value was 31 % UT.

Same assay, conditions: Table 52; Yap1 mRNA, modified oligonucleotides targeting SEQ ID NO: 1 and 2
For “1200839 (kT*kT*kA*dT*dA*mU*dG*dG*dT*dT*dT*dT*dG*kT*kG*kT; antisense) [Compound 1200839]”, the “YAP1 (% UT)” value was 44 % UT. For “1200807 (k[5mC]*kT*kG*dA*dG*mG*dT*dA*dT*dA*dA*d[5mC]*dT*kG*kG*kG; antisense) [Compound 1200807]”, the “YAP1 (% UT)” value was 69 % UT. With “1200851 (kG*kT*kA*dA*dT*mA*dT*dT*dG*d[5mC]*dA*dA*dT*k[5mC]*kT*kG; antisense) [Compound 1200851]” the “YAP1 (% UT)” value was 25 % UT.
